From patent publication US20040241092A1, “Method for determining alleviation of pain in an animal” (priority 2003, published 2004)

Assays:
Format in all cases: in vivo
[1] = test system: (IL-6 plus IL-6sR)-induced arthritic pain in rat; experiment: IL6 Rat: dose response alleviation of (IL-6 plus IL-6sR)-induced arthritic pain (Method Example 1); conditions: oral dose of 10 mg/kg or greater (1, 3, 10, 30 mg/kg tested) 1 hour before 100 ng hrIL-6 + 300 ng hrIL-6sR; measured 1 hour post injection
Text: (§1) Animals were fed standard rat chow with water available ad libitum.
(§2) Each data point is the mean of three readings of 5 seconds duration.

[2] = test system: (IL-6 plus IL-6sR)-induced arthritic pain in rat; experiment: IL6 Rat: time course of alleviation of (IL-6 plus IL-6sR)-induced arthritic pain (Method Example 2); conditions: 10 mg/kg oral 1 hour before 100 ng hrIL-6 + 300 ng hrIL-6sR; Time 1 and 3 hours post injection
Text: as §1, §2

rat knee joint [3] = experiment: (IL-6)-, (IL-6sR)-, (IL-6 plus IL-6sR)- and (heat inactivated IL-6 plus IL-6sR)-induced joint pain (Demonstration Example 3); conditions: intra-articular in 50 μL PBS, 1 hour post injection
Procedure: (§3) It should be appreciated that in all of the below examples, unless indicated otherwise, male Wistar rats (175-200 g) were housed in solid bottom isolator cages, 2-4 rats per cage, with corncob bedding on a 12 hour:12 hour light:dark cycle. Animals were fed standard rat chow with water available ad libitum.
It should be appreciated that in all of the below examples, hind paw weight bearing differentials between the paw of the limb having the control joint (in animals administered test compound vehicle only) and the paw of the limb having the contralateral test joint (in control or inducement animals administered test compound vehicle only and in treatment animals administered test compound dissolved in test compound vehicle) were determined using an incapacitance tester, model 2KG (Linton Instrumentation, Norfolk, United Kingdom). […] Each data point is the mean of three readings of 5 seconds duration. The hind paw weight bearing differentials were expressed in grams and calculated as the [sum of (the weight in grams placed on the control limb minus the weight in grams placed on the contralateral test limb for each animal in the inducement or treatment animal group)] divided by the number of animals in the inducement or treatment animal group. […]

rat knee joint [4] = experiment: (IL-6)-induced joint pain, hind paw weight bearing differential (Demonstration Example 1); conditions: for change in hind paw weight differential compared to the vehicle control group: male Wistar rats
Procedure: as §3
It should be appreciated that in all of the below examples, hind paw weight bearing differentials between the paw of the limb having the control joint (in animals administered test compound vehicle only) and the paw of the limb having the contralateral test joint (in control or inducement animals administered test compound vehicle only and in treatment animals administered test compound dissolved in test compound vehicle) were determined using an incapacitance tester, model 2KG (Linton Instrumentation, Norfolk, United Kingdom). The incapacitance tester has a chamber on top with an outwardly sloping front wall that supports a rat's front limbs, and two weight sensing pads, one for each hind paw, that facilitates this determination. Each data point is the mean of three readings of 5 seconds duration. The hind paw weight bearing differentials were expressed in grams and calculated as the [sum of (the weight in grams placed on the control limb minus the weight in grams placed on the contralateral test limb for each animal in the inducement or treatment animal group)] divided by the number of animals in the inducement or treatment animal group. […] All results were statistically analyzed by comparing the average results for an induction or treatment group with the average result for its control group at the same time point using analysis of covariance (“ANCOVA”) followed by the Hochberg's procedure and those with statistical significance had ρ<0.05 unless otherwise noted.
It should also be appreciated that the IL-6 and IL-6sR used as described in all of the below examples was the commercially available recombinant human IL-6 and recombinant human IL-6sR purchased from R&D Systems, Minneapolis, Minn.
It should also be appreciated that prior to injection of hrIL-6, hrIL-6sR, or hrIL-6 plus hrIL-6sR in all of the below examples, rats were anesthetized with 5% volume/volume (“v/v”) isoflurane gas until knocked down and maintained with 2% v/v isoflurane. Rats became fully conscious about 5 minutes after isoflurane administration was discontinued.
Hind-paw weight differentials between the right joint and the left joint of male Wistar rats (150 g) were determined for 30 rats with the incapacitance tester. Rats were then randomly divided into five groups of 6 rats each, a control group and four inducement groups. Rats were anesthetized with 5% v/v isoflurane gas until knocked down and maintained with 2% v/v isoflurane gas. At Time 0, each rat was injected with 50 μL of PBS into a control knee. In addition, each rat in the control group was injected with 50 μL of PBS into the contralateral test knee and each rat in each of the four inducement groups was injected with 50 μL of PBS containing 10 ng, 30 ng, 100 ng, or 300 ng, respectively, of hrIL-6. The injections were done through the patellar ligament into the knee joint space. The isoflurane gas was discontinued. At Times 1, 3, and 6 hours, pain in each rat was characterized by measuring hind paw weight bearing differentials with the incapacitance tester, and the results were statistically analyzed.

Question: For `CS(=O)(=O)c1ccc(C2=C(c3ccccc3)C(=O)OC2)cc1` [rofecoxib], which “percent inhibition of a change in hind paw weight distribution, compared to test compound vehicle alone” value [1] is on record?
Answer: Its value is “inhibit pain in a statistically significant manner”.

Question: What about the “change in hind paw weight distribution (pain) compared to test compound vehicle alone” value [2] of the same molecule?
Answer: The value was “reduced pain in a statistically significant manner”.

Question: What does the source list for “hrIL-6: commercially available recombinant human IL-6 purchased from R&D Systems”?
Answer: induction of pain in the joint (hind paw weight distribution) (rat knee joint [3]; 100 ng alone): will induce pain; change in hind paw weight differential compared to the vehicle control group (rat knee joint [4]; 10 ng intra-articular in 50 μL PBS, 1, 3, or 6 hours post injection): did not produce a statistically significant change; change in hind paw weight differential compared to the vehicle control group (rat knee joint [4]; 30 ng intra-articular in 50 μL PBS, 1 and 3 hours post injection): statistically significant change; change in hind paw weight differential compared to the vehicle control group (rat knee joint [4]; 30 ng intra-articular in 50 μL PBS, 6 hours post injection): non-significant; change in hind paw weight differential compared to the vehicle control group (rat knee joint [4]; 100 ng intra-articular in 50 μL PBS, 1, 3, and 6 hours post injection): statistically significant change; change in hind paw weight differential compared to the vehicle control group (rat knee joint [4]; 300 ng intra-articular in 50 μL PBS, 1, 3, and 6 hours post injection): statistically significant change; amount that will induce pain in the joint on intra-articular injection (rat knee joint [4]; hrIL-6 only, rat knee joint): more than 10 ng

B1: hrIL-6sR: commercially available recombinant human IL-6sR (interleukin-6 soluble receptor) purchased from R&D Systems (protein, UniProt P08887 20-365, looked up)
extracellular domain: LAPRRCPAQEVARGVLTSLPGDSVTLTCPGVEPEDNATVHWVLRKPAAGSHPSRWAGMGRRLLLRSVQLHDSGNYSCYRAGRPAGTVHLLVDVPPEEPQLSCFRKSPLSNVVCEWGPRSTPSLTTKAVLLVRKFQNSPAEDFQEPCQYSQESQKFSCQLAVPEGDSSFYIVSMCVASSVGSKFSKTQTFQGCGILQPDPPANITVTAVARNPRWLSVTWQDPHSWNSSFYRLRFELRYRAERSKTFTTWMVKDLQHHCVIHDAWSGLRHVVQLRAQEEFGQGEWSEWSPEAMGTPWTESRSPPAENEVSTPMQALTTNKDDDNILFRDSANATSLPVQDSSSVPLP
modifications: extracellular domain
notes: commercially available recombinant human IL-6sR (interleukin-6 soluble receptor) purchased from R&D Systems
Question: How did the “induction of pain in the joint (hind paw weight distribution)” value (rat knee joint [3]; 300 ng alone) turn out when B1 was run?
Answer: Its value is “will induce pain”.
